{"source": "patent US12115159B2", "about": "“Pharmaceutical composition for preventing or treating nonalcoholic fatty liver disease, containing GPR119 ligand as active ingredient” (DONG-A ST CO., LTD., priority 2018, dated 2024)", "key": {"[1]": {"system": "C57BL/6J mouse with induced non-alcoholic steatohepatitis", "experiment": "Histological examination (HE) and triglyceride content of liver, C57BL/6J DIO-NASH mouse model", "format": "in vivo", "details": "Compd1 (H) group, in special diet for eight weeks after induction, vs. DIO-NASH, FIGS. 10 and 11", "procedure": "(§1) A six-week-old male C57BL/6J mouse was fed with a special diet comprising high fat, high fructose, and high cholesterol for at least 26 weeks, and thus was induced to develop non-alcoholic steatohepatitis. It was confirmed that fatty liver and inflammatory fibrosis are induced through a biopsy of liver tissues three weeks before drug supply, and mice were evenly distributed into each group based on the area of collagen stained in the liver tissues. A feed was prepared by mixing the compounds according to the present invention in a special diet and supplied for additional eight weeks. According to the diet supplied to the mice, each of the groups was classified as a control group fed with a normal diet (Normal), a positive control group in which mice with induced non-alcoholic steatohepatitis due to the special diet were not supplied with a drug (DIO-NASH), and a group in which mice with induced non-alcoholic steatohepatitis were supplied with the compound 1 in an amount of 30 mg/kg/day (L) and […] (H) (Cmpd1 (L) and Cmpd1 (H), respectively).\nFor a histological examination, the prepared C57BL/6J mouse model was subjected to autopsy to fix an isolated liver tissue in 10% formalin and prepare a paraffin block, thereby obtaining a 2 μm-thick tissue section. […]"}, "[2]": {"system": "differentiated macrophages (THP-1)", "experiment": "Effect on activation of differentiated macrophages by LPS (IL-1β secretion, ELISA)", "format": "cell-based, human", "details": "differentiated macrophages treated with compound for 48 hours, then LPS; FIG. 9", "procedure": "(§2) Then, THP-1 monocytes were treated with PMA (50 ng/ml) for 48 hours to be differentiate into macrophages, while the compound 1 was co-treated, then replaced with serum-free medium, and then treated with lipopolysaccharides (LPS, 0.5 ng/ml) for four hours so as to quantity interleukin-1β (IL-1β, R&D Systems, DY201) secreted into the medium by using a commercialized ELISKA kit and evaluate an effect on the differentiation of monocytes, so that the results thereof are shown in FIG. 8.\nIn addition, after treating the differentiated macrophages with the compound 1 for 48 hours, the secreted IL-1β was quantified by the same method as above with regard to the activation of immune cells by LPS, so as to evaluate an effect on the activation of differentiated macrophages."}, "[3]": {"system": "ob/ob mouse with induced non-alcoholic steatohepatitis", "experiment": "AST and ALT measurement in blood, ob/ob NASH mouse model", "format": "in vivo", "details": "100 mg/kg/day mixed in special diet for 10 weeks, plasma, vs. Ob-NASH, FIG. 4", "procedure": "(§3) A six-week-old male ob/ob mouse with leptin deficiency was fed with a special diet containing high fat, high fructose, and high cholesterol for 10 weeks, and thus was induced to develop non-alcoholic steatohepatitis. A mixed form of diet was prepared so that a daily dose of (3-(4-(3-(1-(5-ethylpyrimidin-2-yl)piperidin-4-yl)propoxy)-2,6-difluorophenyl)-5-isopropyl-1,2,4-oxadiazole (hereinafter, “compound 1”) reaches 100 mg/kg/day in the compound represented by the chemical formula 1, and supplied to the mouse from a time point of starting the supply of the special diet for 10 weeks.\nThe mouse model with induced non-alcoholic steatohepatitis was subjected to autopsy, after which plasma was separated therefrom, so as to quantify aspartate aminotransferase (AST) and alanine aminotransferase (ALT) by using an automatic blood analyzer (Konelab 20i), and the results thereof are shown in FIG. 4."}, "[4]": {"system": "C57BL/6J mouse with induced non-alcoholic steatohepatitis", "experiment": "Evaluation of fibrosis (Sirius stain, type I collagen immunostaining), C57BL/6J DIO-NASH mouse model", "format": "in vivo", "details": "C57BL/6J DIO-NASH_Compd1, compound in special diet for eight weeks, vs. DIO-NASH; FIGS. 13 and 14", "procedure": "as §1\nThen, for the evaluation of fibrosis, the fibers of the liver tissues were specifically stained with Sirius Res stain in the mice of each group, and a content of type I collagen in the liver tissues was measured by an imaging analysis method after immunostaining, so that the results thereof are shown in FIGS. 13 and 14."}, "[5]": {"system": "ob/ob mouse with induced non-alcoholic steatohepatitis", "experiment": "Histological examination of liver (HE, Masson's Trichrome / Sirius stain) in ob/ob mouse model with induced non-alcoholic steatohepatitis", "format": "in vivo", "details": "100 mg/kg/day mixed in special diet for 10 weeks, vs. Ob-NASH", "procedure": "as §3\nFor a histological examination, the prepared mouse model with induced non-alcoholic steatohepatitis was subjected to autopsy to fix an isolated liver tissue in 10% formalin and prepare a paraffin block, thereby obtaining a 2 μm-thick tissue section. To confirm infiltration of inflammatory cells, Hematoxylin and Eosin (HE) stain was performed using an automatic staining machine (Autostainner XL, Leica), and the results thereof are shown in FIGS. 1 and 2.\nThen, for evaluation of fibrosis, fibers in liver tissue were specifically stained by using Masson's Trichrome stain or Sirius Res stain, and the results thereof are shown in FIGS. 2 and 3."}, "[6]": {"system": "ob/ob mouse with induced non-alcoholic steatohepatitis", "experiment": "Concentration of proteins associated with inflammation and fibrosis in liver tissues (ELISA), ob/ob NASH mouse model", "format": "in vivo", "details": "100 mg/kg/day mixed in special diet for 10 weeks, vs. Ob-NASH, FIG. 5", "procedure": "as §3\nTo evaluate an effect on the expression of inflammation-related genes and fibrosis-related proteins in liver tissues, the liver tissues obtained from the mouse model were put into RIPA buffer (Cell Signaling) and pulverized with TissueLyser II™ (Quiagen), after which a total protein concentration was quantified with Pierce BCA Protein Assay Kit (Thermo Fisher Scientific) and a protein concentration of Mouse Ccl2 (=Mcp1; R&D Systems, MJE00) and Timp1 (R&D Systems, MTM100) in the liver tissues was quantified by using a commercially available ELISA kit, so that the results thereof are shown in FIG. 5."}, "[7]": {"system": "C57BL/6J mouse with induced non-alcoholic steatohepatitis", "experiment": "Change in gene expression in liver tissues (RNAseq), C57BL/6J DIO-NASH mouse model", "format": "in vivo", "details": "C57BL/6J DIO-NASH_Compd1, eight weeks after drug administration, vs. DIO-NASH, FIG. 16", "procedure": "as §1\nTo analyze a change in total gene expression in liver tissues isolated from the above mouse model in eight weeks after drug administration, the isolated RNA fraction was used to generate a library by using NeoPrep (Illumina), and subjected to RNAseq profiling through NexSeq 500 (Illumina), after which bioinformatics analysis was performed and changes in major gene groups were classified for each function, so that the results thereof are shown in FIG. 16."}, "[8]": {"system": "ob/ob mouse with induced non-alcoholic steatohepatitis", "experiment": "Expression of genes associated with inflammation and fibrosis in liver tissues (real-time PCR), ob/ob NASH mouse model", "format": "in vivo", "details": "100 mg/kg/day mixed in special diet for 10 weeks, FIG. 6", "procedure": "as §3\nTo measure an expression level of inflammation-related genes and fibrosis-related genes in liver tissues, Trizol® (Invitrogen) was added to the liver tissues collected from the mouse model, after which a total RNA was extracted from the tissues according to the method provided by the manufacturer, and then cDNA was synthesized by using a reverse transcriptase. Then, a real-time polymerase chain reaction was performed in LightCycler®480 Instrument II (RocheLifeScience) equipment by using a reagent of SYBR Green I Master Mix (Roche, 04707516001), and the results thereof are shown in FIG. 6."}, "human monocytes (THP-1)": {"system": "human monocytes (THP-1)", "experiment": "Effect on differentiation of human monocytes into macrophages (IL-1β secretion, ELISA)", "format": "cell-based", "details": "THP-1 co-treated with compound during PMA (50 ng/ml) differentiation for 48 hours, then LPS (0.5 ng/ml) for four hours; FIG. 8", "procedure": "as §2"}, "[9]": {"system": "C57BL/6J mouse with induced non-alcoholic steatohepatitis", "experiment": "NAFLD activity score (NAS) before and after administration, C57BL/6J DIO-NASH mouse model", "format": "in vivo", "details": "compound in special diet for eight weeks, FIG. 12", "procedure": "as §1"}, "[10]": {"system": "C57BL/6J mouse with induced non-alcoholic steatohepatitis", "experiment": "AST and ALT measurement in blood, C57BL/6J DIO-NASH mouse model", "format": "in vivo", "details": "C57BL/6J DIO-NASH_Compd1, compound in special diet for eight weeks, plasma, vs. DIO-NASH; FIG. 15", "procedure": "as §1\nEach of the mouse groups was subjected to autopsy, after which plasma was separated therefrom, so as to quantity aspartate aminotransferase (AST) and alanine aminotransferase (ALT) by using an automatic blood analyzer (Konelab 20i)."}}, "data": [{"molecule": "CCc1cnc(N2CCC(CCCOc3cc(F)c(-c4noc(C(C)C)n4)c(F)c3)CC2)nc1", "note": "[compound 1, 3-(4-(3-(1-(5-ethylpyrimidin-2-yl)piperidin-4-yl)propoxy)-2,6-difluorophenyl)-5-isopropyl-1,2,4-oxadiazole]", "values": [{"measurement": "fat deposits in liver tissues", "setting": "[1]", "result": "significant decrease"}, {"measurement": "infiltration of inflammatory cells in liver tissues", "setting": "[1]", "result": "significant decrease"}, {"measurement": "IL-1β secretion caused by activation of macrophages", "setting": "[2]", "result": "decreased in a concentration-dependent manner"}, {"measurement": "ALT level in blood", "setting": "[3]", "result": "significant inhibition of increase"}, {"measurement": "AST level in blood", "setting": "[3]", "result": "significant inhibition of increase"}, {"measurement": "cross-linking formation in fibers of the liver tissues", "setting": "[4]", "result": "remarkable decrease"}, {"measurement": "type I collagen in liver tissues", "setting": "[4]", "result": "significant decrease"}, {"measurement": "infiltration of inflammatory cells in liver tissues", "setting": "[5]; FIGS. 1 and 2", "result": "significantly inhibited"}, {"measurement": "fibrosis of liver tissues", "setting": "[5]; FIGS. 2 and 3", "result": "significantly inhibited"}, {"measurement": "protein level of Ccl2 (=Mcp1) in liver tissues", "setting": "[6]", "result": "significantly inhibited"}, {"measurement": "protein level of Timp1 in liver tissues", "setting": "[6]", "result": "significantly inhibited"}, {"measurement": "expression of fibrosis markers in liver tissues", "setting": "[7]", "result": "remarkable decrease"}, {"measurement": "expression of macrophage markers in liver tissues", "setting": "[7]", "result": "remarkable decrease"}, {"measurement": "expression of monocyte attractants in liver tissues", "setting": "[7]", "result": "remarkable decrease"}, {"measurement": "increase in expression of fibrosis-related genes (Tgfb1, Col1a, Timp1, Timp2, Acta2) in liver tissues", "setting": "[8]", "result": "significantly inhibited"}, {"measurement": "increase in expression of inflammation-related genes (Ccl2, Lgals3, Tnfa) in liver tissues", "setting": "[8]", "result": "significantly inhibited"}, {"measurement": "IL-1β secretion caused by activation of macrophages", "setting": "human monocytes (THP-1)", "result": "decreased in a concentration-dependent manner"}, {"measurement": "worsening of disease by NAFLD activity score (NAS), before vs. after administration", "setting": "[9]; C57BL/6J DIO-NASH, disease worsened in 50% of the DIO-NASH group", "result": "no individual was deteriorated"}, {"measurement": "share of group in which the disease was ameliorated by NAFLD activity score (NAS)", "setting": "[9]; C57BL/6J DIO-NASH_Compd1 group", "result": "about 50%"}, {"measurement": "concentration of ALT in blood", "setting": "[10]", "result": "significantly inhibited increase"}, {"measurement": "concentration of AST in blood", "setting": "[10]", "result": "significantly inhibited increase"}]}]}
